Measurements taken from patent US20250179125A1, “Alpha-sheet Polypeptides and Their Use” (University of Washington, priority 2021, published 2025).
Bridge positions count the residues as written; N and C are the ends. Square brackets hold non-standard residues; d marks the D form. Peptide text beside a SMILES is read from it. I, II: the chains in the order shown.

What was measured:
[1] = target: T1, Aβ42 (Homo sapiens, UniProt P05067); assay type: biochemical; conditions: 7500.0
T1 construct: Remove Aβ42 film(s) from −80° C
Description: Peptides were co-incubated with 75 μM Aβ in PBS aggregation buffer and monitored for β-sheet formation via ThT fluorescence over time. In each case, AB alone (ie Aβ aggregating in PBS without any inhibitor) was run as the standard control and used for calculating % inhibition by the following equation:
Importantly, each value had its corresponding ‘blank’ subtracted from the raw data, ie: End Inhibitor value=Raw value at the end of the assay-value for peptide alone in PBS at the given concentration.
The ‘blank’ values never exceeded more than 2× starting Aβ value to ensure that overcorrection is not the source of efficacy in data processing-end Aβ value was on average 20× starting Aβ value. Peptide concentration was varied while Aβ concentration remained fixed to investigate the potency of the designs at equal- and sub-stoichiometric ratios of AP: Aβ (ratios investigated include 1:1, 1:10, and 1:100). […]
Inhibition of Abeta aggregation was assessed in our standard ThT assay and the results can be compared to those in the table comparing different peptides in their monomeric and dimeric forms with 10-fold excess of Abeta.
Aβ aggregation and fibril formation, as well as inhibition experiments with α-sheet peptides, were monitored via ThT fluorescence according to the procedure, as follows. […]

[2] = tested on: curli amyloid fibril formation in live E. coli; experiment: TEM of curli amyloid fibril formation in E. coli biofilms; assay type: cell-based; conditions: equimolar concentrations
Description: FIG. 3(a-c).TEM images reveal extensive curli amyloid fibril formation in (a) peptide-free biofilms and biofilms grown in the presence of (c) P1, but not those grown in the presence of (b) AP195 dimer (Scale bars=2 μm). P1 and AP195 were added at equimolar concentrations. AP195 is an α-sheet peptide and P1 is a random coil control.
The random coil peptide control (P1) had no effect.

[3] = tested on: E. coli GERB319 biofilms; experiment: Biofilm ThT assay in clinical isolate E. coli GERB319; assay type: cell-based; conditions: dimeric peptides 8 μM, AP5 and P1 16 μM
Description: (§1) FIG. 4(a-b). Inhibition of amyloid formation by alpha-sheet designs in live E. coli clinical isolates. […] The concentrations are provided for the dimers, but the P1 and AP5 monomers were double that concentration to provide the same number of monomer units for comparison of the designs (ex. where it says 5 μM applied AP5, it was actually 10 μM). cNFU=corrected, normalized fluorescence units, where normalized signals were corrected by the nonspecific ThT fluorescence of E. coli UTI89 ΔcsgA biofilms. (b) Synthetic α-sheet peptides AP193 and AP195 decreased the ThT fluorescence of E. coli GERB319 biofilms, a clinical UTI isolate with resistance to gentamicin and ciprofloxacin (the dimeric peptides were added at 8 μM and AP5 and P1 were 16 μM to provide the same monomer equivalents). The unstructured control peptide P1 had no effect when applied at the same concentration. […]
Overnight cultures were grown in LB medium for ˜18 h. […] Peptide stocks were dissolved in water and concentrations were determined by Nanodrop™ (Thermo Scientific; Waltham, MA). […] Planktonic cells were spun down and resuspended in PBS, and the optical density of both planktonic and rinse samples was determined at 600 nm to estimate cell densities. […] 100 μL of each biofilm suspension was then transferred to a black-walled, clear-bottom 96 well plate for measurements in a plate reader (PerkinElmer; Waltham, MA). […]

[4] = tested on: E. coli UTI89 WT biofilms; experiment: Biofilm ThT assay in live E. coli UTI89 WT; assay type: cell-based; conditions: 48 h growth, dimers 1-8 μM, monomers double
Description: FIG. 2. Protocol to test inhibition of biofilm amyloid formation in live E. coli. Amyloid formation is assessed through a ThT assay like that used with Abeta and IAPP above. In addition, inhibition of amyloid disrupts the biofilm, leading to an increase in planktonic free-floating bacteria cells, which are then susceptible to antibiotics.
as §1
Overnight cultures were grown in LB medium for ˜18 h. […] Peptide stocks were dissolved in water and concentrations were determined by Nanodrop™ (Thermo Scientific; Waltham, MA). […]

T1 sequence (P05067 672-713 limits assumed): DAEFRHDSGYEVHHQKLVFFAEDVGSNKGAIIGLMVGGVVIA

Molecule	% Inhibition 1:10 (AP peptide:Abeta42) [1] [%]	curli amyloid fibril formation (TEM) [2]	ThT fluorescence of biofilms [3]	amyloid content in biofilms, ThT fluorescence (cNFU) [4]
CSCC[C@H](NC(=O)[C@@H](CCC(=O)O)NC(=O)CNC(=O)[C@@H](CCCNC(=N)N)NC(C)=O)C(=O)N[C@H](CC(N)=O)C(=O)N[C@@H](CC(C)C)C(=O)N[C@H](CO)C(=O)N[C@@H](Cc1c[nH]c2ccccc12)C(=O)N[C@H](CCSC)C(=O)N[C@H](CC(N)=O)C(=O)N[C@H](CCC(=O)O)C(=O)N[C@H](Cc1ccc(O)cc1)C(=O)N[C@H](Cc1ccc(O)cc1)C(=O)NCC(=O)N[C@H](Cc1c[nH]c2ccccc12)C(=O)N[C@H](C(=O)N[C@H](CCSC)C(=O)N[C@@H](CC(N)=O)C(=O)N[C@H](CCSC)C(=O)N[C@@H](CCCCN)C(=O)N[C@H](CS)C(=O)NCC(=O)N[C@H](CCCNC(=N)N)C(N)=O)[C@@H](C)O [AP527m, Ac-rGeMnLsWmneyyGwTmNmKcGr-NH2] (Ac-[dR]G[dE]M[dN]L[dS]W[dM][dN][dE][dY][dY]G[dW]T[dM]N[dM]K[dC]G[dR]-NH2)	14			
I: Ac-RGN[dW]N[dE]S[dK]MNEYSGW[dM]L[dM]C[dT]MGR-NH2 / II: Ac-RGN[dW]N[dE]S[dK]MNEYSGW[dM]L[dM]C[dT]MGR-NH2 (disulfide I:19-II:19) [AP500d, Ac-RGNwNeSkMNEYSGWmLmCtMGR-NH2]		inhibition of fibril formation	significant decrease	dose-dependent reduction
I: Ac-[dR]G[dE]M[dN]L[dS]W[dM][dN][dE][dY][dY]G[dW]T[dM]N[dM]K[dC]G[dR]-NH2 / II: Ac-[dR]G[dE]M[dN]L[dS]W[dM][dN][dE][dY][dY]G[dW]T[dM]N[dM]K[dC]G[dR]-NH2 (disulfide I:21-II:21) [AP527d, Ac-rGeMnLsWmneyyGwTmNmKcGr-NH2]	96			
